Results reported in patent US7049066B2, “Diagnosis and treatment of myocardial failure” (The Regents of the University of Colorado, priority 1997, dated 2006).

Assays:
[1] = test system: α-MHC; conditions: hypothyroid rats; cited from earlier work
[2] = test system: isolated right ventricular (RV) trabeculae from end-stage failing human hearts; conditions: 1 nM T3, incubated for 4 or 12 hours

SMILES: O=C(O)CCc1cc(I)c(Oc2ccc(O)cc2)c(I)c1 [3,5-diiodothyroproprionic acid]
- production of α-MHC [1]: increase the production of (α-MHC

SMILES: N[C@@H](Cc1cc(I)c(Oc2ccc(O)c(I)c2)c(I)c1)C(=O)O [T3, 3,5,3′-triiodo-L-thyronine]
- SRCA gene expression, T3 group compared to control group [2]: no significant differences
- adrenergic receptor gene expression, T3 group compared to control group [2]: no significant differences
- % α-MHC isoform mRNA present following incubation ([2]; p < .05 vs. no T3): 24.5 ± 9.29 %
- % β-MHC isoform mRNA present following incubation ([2]; p < .05 vs. no T3): 75.5 ± 9.29 %
